Experimental data from paper PMC8348110, “A Novel Peptide Derived from the Transmembrane Domain of Romo1 Is a Promising Candidate for Sepsis Treatment and Multidrug-Resistant Bacteria” (International Journal of Molecular Sciences, 2021).
≈ marks a conversion by molar mass, not a printed value. Residues, ends and D or L forms follow the SMILES beside them.

Legend:
[1] = system: Pseudomonas aeruginosa ATCC 27853; type: cell-based; details: ATCC 27853, 1 h
Experimental: (§1) The minimum bactericidal concentration (MBC) was determined as previously described with minor modifications. Briefly, bacteria were cultured in the mid-log phase and diluted to 5 × 10^5 colony-forming unit (CFU)/mL in 10 mM sodium phosphate buffer (pH 7.4) with a 1% volume of TS broth. They were incubated for 1 h with various peptides which were two-fold diluted serially from 64 μg/mL to 0 μg/mL concentrations in a 96-well plate. The samples were inoculated TS agar plate and incubated overnight at 37 °C. The value of MBC was determined at the lowest concentrations at which no colonies were identified.
(§2) We used the CFU counting method to measure antibacterial activity, with all bacteria cultured to the mid-log phase in an appropriate broth medium. Bacterial CFUs were counted after overnight culture at 37 °C on TS or LB agar plates. The MBC value and antibacterial activity in blood components were determined as previously described. Mouse and human whole blood were collected and diluted with PBS (pH 7.4) to measure the ex vivo antibacterial activity of AMPR-22. For that test, AMPR-22 (10 μg) was added to each whole blood solution and incubated at 37 °C with shaking at 200 rpm. At each time point, it was incubated with bacteria (1 × 10^3 CFU) for 30 min. Each sample was inoculated on an LB agar plate, and CFU counting was performed. To measure the in vivo activity of AMPR-22, 1 × 10^8 CFU of bacteria were injected into BALB/c mice, and an hour later, 10 mg/kg of the test peptides were injected. Blood samples were collected by tail cut, serially diluted with PBS (pH 7.4), and inoculated on LB-agar plates, followed by CFU counting. To estimate the functional half-life of AMPR-22, 40 mg/kg of each tested peptide were injected into mice. Whole blood sampling was performed by cardiac puncture, and the plasma was isolated by centrifugation (2000× g, 15 min). The isolated plasma was incubated with bacteria (1 × 10^3 CFU) for an hour, and then the CFU counting method was performed.

[2] = system: Staphylococcus aureus ATCC 29213; type: cell-based; details: ATCC 29213, 1 h, pH 7.4
Experimental: as §1, §2

[3] = system: Methicillin-resistant S. aureus (MRSA) ATCC 33591; type: cell-based, Staphylococcus aureus; details: ATCC 33591, 1 h
Experimental: as §1, §2

[4] = system: Carbapenem-resistant P. aeruginosa (CRPA), clinical isolate; type: cell-based, Pseudomonas aeruginosa; details: 1 h
Description: Acinetobacter baumannii (ATCC 19606), B. subtilis (ATCC 6633), E. aerogenes (ATCC 13048), E. coli (ATCC 25922), E. faecalis (ATCC 19433), E. faecium (ATCC 19434), K. pneumoniae (ATCC 13883), P. aeruginosa (ATCC 27853), S. aureus (ATCC 29213), S. sindenensis (ATCC 23963), and MRSA (ATCC 33591) were purchased from the American Type Culture Collection (ATCC; Gaithersburg, MD, USA). Streptococcus pneumoniae (NCCP 14585), vancomycin-resistant E. faecium (NCCP 11522), and vancomycin-resistant S. aureus (NCCP 15872) were purchased from the National Culture Collection for Pathogens (NCCP; Cheongju, Korea). The isolation and use of carbapenem-resistant bacterial strains from a patient were approved (2015AN0129) by the Institutional Review Board (IRB) of Korea University Hospital. CRPA, CRKP, and CRAB were clinically isolated in Korea University Hospital (Seoul, Korea). CRPA was confirmed to be resistant to piperacillin, piperacillin-tazobactam, ceftazidime, imipenem, meropenem, gentamicin, amikacin, and ciprofloxacin. CRAB was confirmed to be resistant to piperacillin, piperacillin-tazobactam, cefepime, ceftazidime, imipenem, meropenem, gentamicin, amikacin, and ciprofloxacin. CRKP was confirmed to be resistant to piperacillin-tazobactam, cefepime, ceftazidime, imipenem, gentamicin, and ciprofloxacin. All strains were stored at –80 °C in 50% glycerol and 50% Luria-Bertani (LB) or tryptic soy (TS) broth, grown on LB or TS plates, and aerated at 37 °C.
as §1, §2

Structure (SMILES): CC[C@H](C)[C@H](NC(=O)CNC(=O)[C@H](CCSC)NC(=O)CNC(=O)[C@@H](NC(=O)[C@H](C)NC(=O)[C@H](CCSC)NC(=O)[C@H](Cc1ccccc1)NC(=O)[C@@H](NC(=O)CNC(=O)[C@H](Cc1ccccc1)NC(=O)[C@H](CCCCN)NC(=O)CNC(=O)CNC(=O)[C@H](CCCCN)NC(=O)[C@H](CCCCN)NC(=O)[C@H](CCSC)NC(=O)[C@H](CCCCN)NC(=O)[C@@H](N)CCCCN)[C@@H](C)O)[C@@H](C)CC)C(=O)N[C@@H](CCCNC(=N)N)C(=O)O [d60M] (H-KKMKKGGKFGTFMAIGMGIR-OH)
- MBC Value, P. aeruginosa [1]: 2 µg/mL (≈ 0.915 µM)
- MBC Value, S. aureus [2]: 4 µg/mL (≈ 1.83 µM)
- MBC Value, MRSA [3]: 1 µg/mL (≈ 0.457 µM)
- MBC Value, CRPA [4]: 4 µg/mL (≈ 1.83 µM)

Structure (SMILES): CC[C@H](C)[C@H](NC(=O)CNC(=O)[C@H](CCSC)NC(=O)CNC(=O)[C@@H](NC(=O)[C@H](C)NC(=O)[C@H](CCSC)NC(=O)[C@H](Cc1ccccc1)NC(=O)[C@@H](NC(=O)CNC(=O)[C@H](Cc1ccccc1)NC(=O)[C@H](CCCCN)NC(=O)CNC(=O)CNC(=O)[C@H](CCCCN)NC(=O)[C@H](CCSC)NC(=O)[C@H](CCSC)NC(=O)[C@H](CCCCN)NC(=O)[C@@H](N)CCCCN)[C@@H](C)O)[C@@H](C)CC)C(=O)N[C@@H](CCCNC(=N)N)C(=O)O [d62K] (H-KKMMKGGKFGTFMAIGMGIR-OH)
- MBC Value, P. aeruginosa [1]: 2 µg/mL (≈ 0.913 µM)
- MBC Value, S. aureus [2]: 8 µg/mL (≈ 3.65 µM)
- MBC Value, MRSA [3]: 8 µg/mL (≈ 3.65 µM)
- MBC Value, CRPA [4]: 8 µg/mL (≈ 3.65 µM)

Structure (SMILES): CC[C@H](C)[C@H](NC(=O)CNC(=O)[C@H](CCSC)NC(=O)CNC(=O)[C@@H](NC(=O)[C@H](C)NC(=O)[C@H](CCSC)NC(=O)[C@H](Cc1ccccc1)NC(=O)[C@@H](NC(=O)CNC(=O)[C@H](Cc1ccccc1)NC(=O)[C@H](CCCCN)NC(=O)CNC(=O)[C@H](CCCCN)NC(=O)[C@H](CCCCN)NC(=O)[C@H](CCSC)NC(=O)[C@H](CCSC)NC(=O)[C@H](CCCCN)NC(=O)[C@@H](N)CCCCN)[C@@H](C)O)[C@@H](C)CC)C(=O)N[C@@H](CCCNC(=N)N)C(=O)O [d64G] (H-KKMMKKGKFGTFMAIGMGIR-OH)
- MBC Value, P. aeruginosa [1]: 2 µg/mL (≈ 0.885 µM)
- MBC Value, S. aureus [2]: 2 µg/mL (≈ 0.885 µM)
- MBC Value, MRSA [3]: 1 µg/mL (≈ 0.442 µM)
- MBC Value, CRPA [4]: 4 µg/mL (≈ 1.77 µM)

Structure (SMILES): CC[C@H](C)[C@H](NC(=O)CNC(=O)[C@H](CCSC)NC(=O)CNC(=O)[C@@H](NC(=O)[C@H](C)NC(=O)[C@H](CCSC)NC(=O)[C@H](Cc1ccccc1)NC(=O)[C@@H](NC(=O)CNC(=O)[C@H](Cc1ccccc1)NC(=O)CNC(=O)CNC(=O)[C@H](CCCCN)NC(=O)[C@H](CCCCN)NC(=O)[C@H](CCSC)NC(=O)[C@H](CCSC)NC(=O)[C@H](CCCCN)NC(=O)[C@@H](N)CCCCN)[C@@H](C)O)[C@@H](C)CC)C(=O)N[C@@H](CCCNC(=N)N)C(=O)O [d66K] (H-KKMMKKGGFGTFMAIGMGIR-OH)
- MBC Value, P. aeruginosa [1]: 4 µg/mL (≈ 1.83 µM)
- MBC Value, S. aureus [2]: 8 µg/mL (≈ 3.65 µM)
- MBC Value, MRSA [3]: 4 µg/mL (≈ 1.83 µM)
- MBC Value, CRPA [4]: 4 µg/mL (≈ 1.83 µM)

Structure (SMILES): CC[C@H](C)[C@H](NC(=O)CNC(=O)[C@H](CCSC)NC(=O)CNC(=O)[C@@H](NC(=O)[C@H](C)NC(=O)[C@H](CCSC)NC(=O)[C@H](Cc1ccccc1)NC(=O)[C@@H](NC(=O)CNC(=O)[C@H](CCCCN)NC(=O)CNC(=O)CNC(=O)[C@H](CCCCN)NC(=O)[C@H](CCCCN)NC(=O)[C@H](CCSC)NC(=O)[C@H](CCSC)NC(=O)[C@H](CCCCN)NC(=O)[C@@H](N)CCCCN)[C@@H](C)O)[C@@H](C)CC)C(=O)N[C@@H](CCCNC(=N)N)C(=O)O [d67F] (H-KKMMKKGGKGTFMAIGMGIR-OH)
- MBC Value, P. aeruginosa [1]: 4 µg/mL (≈ 1.84 µM)
- MBC Value, S. aureus [2]: 8 µg/mL (≈ 3.69 µM)
- MBC Value, MRSA [3]: 4 µg/mL (≈ 1.84 µM)
- MBC Value, CRPA [4]: 8 µg/mL (≈ 3.69 µM)

Structure (SMILES): CC[C@H](C)[C@H](NC(=O)CNC(=O)[C@H](CCSC)NC(=O)CNC(=O)[C@@H](NC(=O)[C@H](C)NC(=O)[C@H](CCSC)NC(=O)[C@H](Cc1ccccc1)NC(=O)[C@@H](NC(=O)[C@H](Cc1ccccc1)NC(=O)[C@H](CCCCN)NC(=O)CNC(=O)CNC(=O)[C@H](CCCCN)NC(=O)[C@H](CCCCN)NC(=O)[C@H](CCSC)NC(=O)[C@H](CCSC)NC(=O)[C@H](CCCCN)NC(=O)[C@@H](N)CCCCN)[C@@H](C)O)[C@@H](C)CC)C(=O)N[C@@H](CCCNC(=N)N)C(=O)O [d68G] (H-KKMMKKGGKFTFMAIGMGIR-OH)
- MBC Value, P. aeruginosa [1]: 4 µg/mL (≈ 1.77 µM)
- MBC Value, S. aureus [2]: 4 µg/mL (≈ 1.77 µM)
- MBC Value, MRSA [3]: 4 µg/mL (≈ 1.77 µM)
- MBC Value, CRPA [4]: 8 µg/mL (≈ 3.54 µM)

Structure (SMILES): CC[C@H](C)[C@H](NC(=O)CNC(=O)[C@H](CCSC)NC(=O)CNC(=O)[C@@H](NC(=O)[C@H](C)NC(=O)[C@H](CCSC)NC(=O)[C@H](Cc1ccccc1)NC(=O)CNC(=O)[C@H](Cc1ccccc1)NC(=O)[C@H](CCCCN)NC(=O)CNC(=O)CNC(=O)[C@H](CCCCN)NC(=O)[C@H](CCCCN)NC(=O)[C@H](CCSC)NC(=O)[C@H](CCSC)NC(=O)[C@H](CCCCN)NC(=O)[C@@H](N)CCCCN)[C@@H](C)CC)C(=O)N[C@@H](CCCNC(=N)N)C(=O)O [d69T] (H-KKMMKKGGKFGFMAIGMGIR-OH)
- MBC Value, P. aeruginosa [1]: 4 µg/mL (≈ 1.8 µM)
- MBC Value, S. aureus [2]: 2 µg/mL (≈ 0.902 µM)
- MBC Value, MRSA [3]: 1 µg/mL (≈ 0.451 µM)
- MBC Value, CRPA [4]: 4 µg/mL (≈ 1.8 µM)

Structure (SMILES): CC[C@H](C)[C@H](NC(=O)CNC(=O)[C@H](CCSC)NC(=O)CNC(=O)[C@@H](NC(=O)[C@H](C)NC(=O)[C@H](Cc1ccccc1)NC(=O)[C@@H](NC(=O)CNC(=O)[C@H](Cc1ccccc1)NC(=O)[C@H](CCCCN)NC(=O)CNC(=O)CNC(=O)[C@H](CCCCN)NC(=O)[C@H](CCCCN)NC(=O)[C@H](CCSC)NC(=O)[C@H](CCSC)NC(=O)[C@H](CCCCN)NC(=O)[C@@H](N)CCCCN)[C@@H](C)O)[C@@H](C)CC)C(=O)N[C@@H](CCCNC(=N)N)C(=O)O [d71M] (H-KKMMKKGGKFGTFAIGMGIR-OH)
- MBC Value, P. aeruginosa [1]: 2 µg/mL
- MBC Value, S. aureus [2]: 4 µg/mL
- MBC Value, MRSA [3]: 4 µg/mL
- MBC Value, CRPA [4]: 8 µg/mL

Structure (SMILES): CC[C@H](C)[C@H](NC(=O)CNC(=O)[C@H](CCSC)NC(=O)CNC(=O)[C@@H](NC(=O)[C@H](CCSC)NC(=O)[C@H](Cc1ccccc1)NC(=O)[C@@H](NC(=O)CNC(=O)[C@H](Cc1ccccc1)NC(=O)[C@H](CCCCN)NC(=O)CNC(=O)CNC(=O)[C@H](CCCCN)NC(=O)[C@H](CCCCN)NC(=O)[C@H](CCSC)NC(=O)[C@H](CCSC)NC(=O)[C@H](CCCCN)NC(=O)[C@@H](N)CCCCN)[C@@H](C)O)[C@@H](C)CC)C(=O)N[C@@H](CCCNC(=N)N)C(=O)O [d72A] (H-KKMMKKGGKFGTFMIGMGIR-OH)
- MBC Value, P. aeruginosa [1]: 2 µg/mL (≈ 0.89 µM)
- MBC Value, S. aureus [2]: 2 µg/mL (≈ 0.89 µM)
- MBC Value, MRSA [3]: 2 µg/mL (≈ 0.89 µM)
- MBC Value, CRPA [4]: 4 µg/mL (≈ 1.78 µM)

Structure (SMILES): CC[C@H](C)[C@H](NC(=O)CNC(=O)[C@H](CCSC)NC(=O)[C@@H](NC(=O)[C@H](C)NC(=O)[C@H](CCSC)NC(=O)[C@H](Cc1ccccc1)NC(=O)[C@@H](NC(=O)CNC(=O)[C@H](Cc1ccccc1)NC(=O)[C@H](CCCCN)NC(=O)CNC(=O)CNC(=O)[C@H](CCCCN)NC(=O)[C@H](CCCCN)NC(=O)[C@H](CCSC)NC(=O)[C@H](CCSC)NC(=O)[C@H](CCCCN)NC(=O)[C@@H](N)CCCCN)[C@@H](C)O)[C@@H](C)CC)C(=O)N[C@@H](CCCNC(=N)N)C(=O)O [d74G] (H-KKMMKKGGKFGTFMAIMGIR-OH)
- MBC Value, P. aeruginosa [1]: 4 µg/mL (≈ 1.77 µM)
- MBC Value, S. aureus [2]: 4 µg/mL (≈ 1.77 µM)
- MBC Value, MRSA [3]: 4 µg/mL (≈ 1.77 µM)
- MBC Value, CRPA [4]: 8 µg/mL (≈ 3.54 µM)
